Assay results reported in US8557805B2, “Fused ring compound and use thereof” (Takeda Pharmaceutical Company Limited, priority 2008, dated 2013).

Legend:
[1] = target: T1, human liver GK (GST-hLGK1) (Homo sapiens, UniProt P35557); test: Determination of GK activity value (Mant-ATP to Mant-ADP conversion, capillary electrophoresis); assay type: biochemical; conditions: reaction started with 25 mM D-glucose solution, 37° C., 60 min, concentration at midpoint between maximum activity value and control group activity value
T1 construct: with a BamHI site added to immediately before the initiation codon; made in house; host or cells: Escherichia coli BL21 (Stratagene), plasmid pGEX6P-2/hLGK1
T1 sequence (P35557 1-464 isoform P35557-3): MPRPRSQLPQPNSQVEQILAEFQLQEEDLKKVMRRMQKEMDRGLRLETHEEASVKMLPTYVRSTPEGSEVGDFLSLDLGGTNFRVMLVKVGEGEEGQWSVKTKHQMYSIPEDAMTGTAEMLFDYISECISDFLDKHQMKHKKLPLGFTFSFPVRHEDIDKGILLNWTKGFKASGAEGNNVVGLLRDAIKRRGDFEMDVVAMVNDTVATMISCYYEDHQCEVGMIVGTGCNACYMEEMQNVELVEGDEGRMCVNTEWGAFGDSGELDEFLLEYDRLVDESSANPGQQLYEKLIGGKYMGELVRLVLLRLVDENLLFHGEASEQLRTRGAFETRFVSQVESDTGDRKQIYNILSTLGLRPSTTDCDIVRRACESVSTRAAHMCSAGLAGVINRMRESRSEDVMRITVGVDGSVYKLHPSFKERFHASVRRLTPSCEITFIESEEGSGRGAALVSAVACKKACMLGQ
Description: Plasmid DNA to be used for the expression of a protein (GST-hLGK1) containing GST (Glutathione S-transferase) added to the amino terminal of human liver GK in Escherichia coli was prepared as follows.
First, PCR was performed using human liver cDNA (Marathon Ready cDNA, Clontech Laboratories, Inc.) as a template and two kinds of synthetic DNAs (5′-[…]-3′ (SEQ ID NO: 1) and 5′-[…]-3′ (SEQ ID NO: 2)), and the obtained DNA fragment was closed using a TOPO TA Cloning Kit (Invitrogen Corporation). PCR was performed using the obtained plasmid DNA as a template and a synthetic DNA (5′-[…] CAGAG-3′ (SEQ ID NO: 3)) with a BamHI site added to immediately before the initiation codon, and a synthetic DNA (5′-[…]-3′ (SEQ ID NO: 4)) with an EcoRI site added to immediately after the stop codon. The obtained DNA fragment was subcloned to pGEX6P-2 (Amersham Biosciences K.K.) cleaved with BamHI and EcoRI to give a plasmid (pGEX6P-2/hLGK1) for expression of human liver GK.
BL21 strain (Stratagene) transformed with pGEX6P-2/hLGK1 obtained in (1) was cultured with shaking at 37° C. for 14 hr in a 200 ml Erlenmeyer flask containing 50 ml of 100 μg/ml ampicillin-containing LB medium. The culture medium (25 ml) was diluted with 225 ml of 100 μg/ml ampicillin-containing LB medium, and further cultured with shaking at 37° C. for 1 hr in a 1 L Erlenmeyer flask. After culture, the Erlenmeyer flask was cooled on ice, 125 μL of 100 mM isopropyl-thio-β-D-galactopyranoside (IPTG) was added (final concentration 50 μM), and cultured at 17° C. for 20 hr. The culture medium was centrifuged, and the obtained fungus was disrupted by ultrasonication. The object protein (GST-hLGK1) was purified from the supernatant using Glutathione Sepharose 4B (Amersham Biosciences K.K.).
A solution (5 μL) of test compound in 50% dimethyl sulfoxide was added to each well of 384 well black plate (Nalge Nunc International K.K.). Then, a solution (35 μL) obtained by diluting GST-hLGK1 obtained in (2) with measurement buffer (containing 50 mM HEPES (pH 7.4), 200 mM KCl, 5 mM MgCl2, 2.5 mM DTT and 50 μM 2′-(or-3′)-O—(N-methylanthraniloyl)adenosine 5′-triphosphate (Mant-ATP) (Jena Bioscience GmbH)) to 6 μg/mL was added to each well.
Each well was stood at 37° C. for 10 min, and 25 mM D-glucose solution (10 μL) was added to start the reaction.
Each well after the reaction was stood at 37° C. for 60 min, and the reaction was quenched by adding 25 μL of a quenching solution (containing 200 mM HEPES (pH 7.4), 20 mM MgCl2, 200 mM EDTA, 0.03% Triton-X 100, 0.3% Coating 3 reagent (Caliper Life Sciences, Inc.)).
2′-(or -3′)-O—(N-methylanthraniloyl)adenosine 5′-triphosphate (Mant-ATP, substrate) and Mant-ADP (reaction resultant product) were separated from each well after the reaction by a microchip type capillary electrophoresis apparatus 250 HTS (Caliper Life Sciences, Inc.). The reaction rate [(reaction resultant product peak height)/(reaction resultant product peak height+substrate peak height)×100(%)] was calculated from the ratio of the substrate peak height and reaction resultant product peak height obtained by fluorescence detection (excitation wavelength 355 nm, measurement wavelength 460 nm) and used as the index of GK activity.
3.5 As a control group, the reaction rate was calculated in the same manner as above except that “solution in 50% dimethyl sulfoxide (without test compound)” was used instead of “solution of test compound in 50% dimethyl sulfoxide”.
A concentration dependency curve of the test compound was drawn with the percentage obtained by dividing the reaction rate of the well added with the test compound (test compound addition group) by the reaction rate of the control group was taken as the GK activity value of the test compound, and the concentration of the test compound at the midpoint between the maximum activity value of the test compound addition group and the control group activity value is shown as EC50 value.

| Compound | EC50 [1] | melting point |
| --- | --- | --- |
| CNC(=O)CC1CN=C(c2cc3cc(Oc4ccc(S(C)(=O)=O)nc4)ccc3[nH]2)S1 (single isomer, unassigned) [Example 78, N-Methyl-2-[2-(5-{[6-(methylsulfonyl)pyridin-3-yl]oxy}-1H-indol-2-yl)-4,5-dihydro-1,3-thiazol-5-yl]acetamide] | 80 nM | 178 to 180 °C |
| CN(C)C(=O)CC1CN=C(c2cc3cc(Oc4ccc(S(C)(=O)=O)nc4)ccc3[nH]2)S1 (stereo not shown) [Example 55, N,N-Dimethyl-2-[2-(5-{[6-(methylsulfonyl)pyridin-3-yl]oxy}-1H-indol-2-yl)-4,5-dihydro-1,3-thiazol-5-yl]acetamide] | 180 nM | 162 to 164 °C |
| COCCNC(=O)CC1CN=C(c2cc3cc(Oc4ccc(S(C)(=O)=O)nc4)ccc3[nH]2)S1 (single isomer, unassigned) [Example 67, N-(2-Methoxyethyl)-2-[2-(5-{[6-(methylsulfonyl)pyridin-3-yl]oxy}-1H-indol-2-yl)-4,5-dihydro-1,3-thiazol-5-yl]acetamide] | 89 nM | – |
| COCc1ccc(Oc2cc(OC3CCOCC3)c3[nH]c(C4=NCC(CCO)S4)cc3c2)cn1 (stereo not shown) [Example 7, 2-{2-[5-{[6-(Methoxymethyl)pyridin-3-yl]oxy}-7-(tetrahydro-2H-pyran-4-yloxy)-1H-indol-2-yl]-4,5-dihydro-1,3-thiazol-5-yl}ethanol] | 14 nM | – |
| CC(C)(O)CC1CN=C(c2cc3cc(Oc4ccc(S(C)(=O)=O)cc4)cc(OC4CCOCC4)c3[nH]2)S1 (stereo not shown) [Example 3, 2-Methyl-1-(2-{5-[4-(methylsulfonyl)phenoxy]-7-(tetrahydro-2H-pyran-4-yloxy)-1H-indol-2-yl}-4,5-dihydro-1,3-thiazol-5-yl)propan-2-ol] | 15 nM | 163 to 164 °C |
| CS(=O)(=O)c1ccc(Oc2cc(OC3CCOCC3)c3[nH]c(C4=NCC(CC(=O)NC5CC5)S4)cc3c2)cn1 (stereo not shown) [Example 37, N-Cyclopropyl-2-{2-[5-{[6-(methylsulfonyl)pyridin-3-yl]oxy}-7-(tetrahydro-2H-pyran-4-yloxy)-1H-indol-2-yl]-4,5-dihydro-1,3-thiazol-5-yl}acetamide] | 16 nM | 175 to 176 °C |
| COCCNC(=O)CC1CN=C(c2cc3cc(Oc4ccc(S(C)(=O)=O)nc4)ccc3[nH]2)S1 (stereo not shown) [Example 57, N-(2-Methoxyethyl)-2-[2-(5-{[6-(methylsulfonyl)pyridin-3-yl]oxy}-1H-indol-2-yl)-4,5-dihydro-1,3-thiazol-5-yl]acetamide] | 160 nM | 155 to 156 °C |
| CN(C)C(=O)CC1CN=C(c2cc3cc(Oc4ccc(S(C)(=O)=O)nc4)ccc3[nH]2)S1 (single isomer, unassigned) [Example 65, N,N-Dimethyl-2-[2-(5-{[6-(methylsulfonyl)pyridin-3-yl]oxy}-1H-indol-2-yl)-4,5-dihydro-1,3-thiazol-5-yl]acetamide] | 66 nM | – |
| COCCOCc1ccc(Oc2cc(OC3CCOCC3)c3[nH]c(C4=NCC(CCO)S4)cc3c2)cn1 (stereo not shown) [Example 20, 2-{2-[5-({6-[(2-Methoxyethoxy)methyl]pyridin-3-yl}oxy)-7-(tetrahydro-2H-pyran-4-yloxy)-1H-indol-2-yl]-4,5-dihydro-1,3-thiazol-5-yl}ethanol] | 27 nM | – |
| CS(=O)(=O)Cc1ccc(Oc2cc(OC3CCOCC3)c3[nH]c(C4=NCC(CCO)S4)cc3c2)cn1 (stereo not shown) [Example 24, 2-{2-[5-({6-[(Methylsulfonyl)methyl]pyridin-3-yl}oxy)-7-(tetrahydro-2H-pyran-4-yloxy)-1H-indol-2-yl]-4,5-dihydro-1,3-thiazol-5-yl}ethanol] | 19 nM | – |

Second part, the compound after the results:

| EC50 [1] | melting point | Compound |
| --- | --- | --- |
| 16 nM | – | CS(=O)(=O)c1ccc(Oc2cc(OC3CCOCC3)c3[nH]c(C4=NCC(CC(N)=O)S4)cc3c2)cn1 (single isomer, unassigned) [Example 32, 2-{2-[5-{[6-(Methylsulfonyl)pyridin-3-yl]oxy}-7-(tetrahydro-2H-pyran-4-yloxy)-1H-indol-2-yl]-4,5-dihydro-1,3-thiazol-5-yl}acetamide] |
| 120 nM | 190 to 191 °C | CS(=O)(=O)c1ccc(Oc2ccc3[nH]c(C4=NCC(CC(=O)N5CCOCC5)S4)cc3c2)cn1 (stereo not shown) [Example 58, 5-{[6-(Methylsulfonyl)pyridin-3-yl]oxy}-2-[5-(2-morpholin-4-yl-2-oxoethyl)-4,5-dihydro-1,3-thiazol-2-yl]-1H-indole] |
| 18 nM | 194 to 196 °C | CCc1cc(Oc2ccc(S(C)(=O)=O)nc2)cc2cc(C3=NCC(CC(=O)N4CC[S+]([O-])CC4)S3)[nH]c12 (stereo not shown) [Example 82, 7-Ethyl-5-{[6-(methylsulfonyl)pyridin-3-yl]oxy}-2-{5-[2-(1-oxidothiomorpholin-4-yl)-2-oxoethyl]-4,5-dihydro-1,3-thiazol-2-yl}-1H-indole] |
| 120 nM | 216 to 217 °C | CCNC(=O)CC1CN=C(c2cc3cc(Oc4ccc(S(C)(=O)=O)nc4)ccc3[nH]2)S1 (stereo not shown) [Example 54, N-Ethyl-2-[2-(5-{[6-(methylsulfonyl)pyridin-3-yl]oxy}-1H-indol-2-yl)-4,5-dihydro-1,3-thiazol-5-yl]acetamide] |
| 31 nM | – | CNC(=O)CC1CN=C(c2cc3cc(Oc4ccc(S(C)(=O)=O)nc4)cc(OC4CCOCC4)c3[nH]2)S1 (single isomer, unassigned) [Example 35, N-Methyl-2-{2-[5-{[6-(methylsulfonyl)pyridin-3-yl]oxy}-7-(tetrahydro-2H-pyran-4-yloxy)-1H-indol-2-yl]-4,5-dihydro-1,3-thiazol-5-yl}acetamide] |
| 16 nM | – | CNC(=O)CC1CN=C(c2cc3cc(Oc4ccc(S(C)(=O)=O)nc4)cc(OC4CCOCC4)c3[nH]2)S1 (single isomer, unassigned) [Example 36, N-Methyl-2-{2-[5-{[6-(methylsulfonyl)pyridin-3-yl]oxy}-7-(tetrahydro-2H-pyran-4-yloxy)-1H-indol-2-yl]-4,5-dihydro-1,3-thiazol-5-yl}acetamide] |
| 26 nM | – | CS(=O)(=O)c1ccc(Oc2cc(OC3CCOCC3)c3[nH]c(C4=NCC(CC(N)=O)S4)cc3c2)cn1 (single isomer, unassigned) [Example 33, 2-{2-[5-{[6-(Methylsulfonyl)pyridin-3-yl]oxy}-7-(tetrahydro-2H-pyran-4-yloxy)-1H-indol-2-yl]-4,5-dihydro-1,3-thiazol-5-yl}acetamide] |
